Measured values as given in patent US20190017017A1, “USE OF VASCULAR CELLS TO CREATE THE CONVENTIONAL OUTFLOW TRACT” (THE RESEARCH FOUNDATION FOR THE STATE UNIVERSITY OF NEW YORK, priority 2016, published 2019).

Key:
HTM cells = assay: Outflow facility of porous scaffolds bearing cultured HTM cells (perfusion); format: cell-based, human; conditions: FIG. 15
Source text: TM cells and SC cell-like cells co-cultured on a porous scaffold in accordance with aspects of the present disclosure may serve as a system to model conventional outflow tract function, physiology, and pathophysiology. FIG. 13A is a diagrammatic representation of a testing apparatus for performing perfusion-related testing in accordance with aspects of the present disclosure. A syringe pump or other pressure source may feed into a holder for a porous scaffold, with TM and SC cell-like cells co-cultured thereupon, with pressure controlled and measured by a pressure transducer. The pressure across the porous scaffold and cells, and other aspects related to pressure such as through-flow, flow rate, resistance to flow, hydraulic conductivity, and other indicia of conventional outflow tract function may be measured. For example, fluids can be perfused across the co-culture-bearing scaffold and aspects of fluid mechanics measured as an indication of conventional outflow tract function. […] Aspects of membrane pressure, outflow dynamics, and cellular function can similarly be measured under different conditions known or hypothesized to replicate disease states, or lack thereof, or conditions known or believed to prevent, ameliorate, or cure disease or pathological states. In an example, fluid may be perfused across a porous scaffold bearing co-cultured TM and SC cell-like cells and effects of transmembrane pressure, flow rate, through-flow, resistance to flow, hydraulic conductivity, vacuole dynamics, pore formation, or outflow facility of the co-cultured TM cells and SC cell-like cells may be measured. […] Other aspects of cellular physiology or function may similarly be measured, in response or relation to perfusion or otherwise. […]
A perfusion apparatus was used as described in publicly available literature and in accordance with the apparatus illustrated in FIG. 13. […] Vacuole/pore size were measured using the embedded LEO electron microscopy image software. […]

HTM/HMVEC constructs = assay: qPCR and western blot of outflow pathway markers in co-cultured constructs exposed to pharmacologic agents; format: cell-based, human; conditions: qPCR and western blotting; FIGS. 14A-E
Protocol: Total RNA was extracted from samples using an RNeasy Plus Mini kit (Qiagen Inc., Valencia, Calif.). RNA concentrations were determined using a NanoDrop spectrophotometer. 50 ng of RNA per sample was used for each qPCR experiments. qPCR was carried out using TAQMAN RNA-TO-CT™ 1-Step Kit (Applied Biosystems, Carlsbad, Calif.) and performed on an AB StepOnePlus Real Time PCR system (Life Technologies, Carlsbad, Calif.) using primers for αB-crystallin, PECAM-1, fibulin-2, collagen type IV, fibronectin, laminin and GAPDH.
The temperature profile was as follows: 48° C. for 15 min (reverse transcription step), followed by an enzyme activation step of 95° C. for 10 min, 40 cycles of 15 s denaturation at 95° C. and 1 min anneal/extend at 60° C. Relative quantitation data analysis was performed using the comparative quantification method, ΔΔCt, with GAPDH as the endogenous reference. […]
FIGS. 14A-E show gene (left panels, qPCR) and protein (right, western blots) expression patterns of co-cultured HTM/HVEC constructs. HTM-HMVEC and HTM-HSC constructs were contacted with pharmacologic agents that regulate outflow and expression levels of various genes and proteins (α-SMA, collagen IV, fibronectin, myocillin) measured by qPCR and western blotting. […]

| Compound | effect on outflow facility (HTM cells) | response (expression of α-SMA, collagen IV, fibronectin, myocillin) of HTM-HMVEC constructs compared with HTM-HSC constructs (HTM/HMVEC constructs) |
| --- | --- | --- |
| CC(=O)OCC(=O)[C@@]1(O)CC[C@H]2[C@@H]3CCC4=CC(=O)C=C[C@]4(C)[C@H]3C(=O)C[C@@]21C [prednisone acetate] | inhibit |  |
| C[C@@H](N)[C@H]1CC[C@H](C(=O)Nc2ccncc2)CC1 [Y27632] | stimulate | responds similar |
| TGFβ | inhibit | responds similar |
